Results reported in patent publication US20140249105A1, “NOVEL CERAMIDE ANALOGUES, PROCESSES FOR PREPARING SAME AND USES THEREOF” (Diverchim, priority 2011, published 2014).
“And” between values parts separate entries of the source, which are not always exact repeats. Identical values can stand only once.

Key:
Type in all cases: cell-based
[1] = target: T1, tyrosinase (DOPA oxidase) (Homo sapiens, UniProt P14679); assay: Screening of anti-tyrosinase activity: DOPA oxidase reaction on separated epidermis, count of DOPA positive melanocytes per mm2; details: for Variation/control: DOPA positive melanocyte count per mm2 vs DOPA control, product at 30 μg/mL in DMSO; for effectiveness for limiting tyrosinase activity compared with reference compounds: vs ref 1
T1 construct: from tissue; host or cells: separated human epidermis from a frozen abdominoplasty (melanocytes in situ)
T1 sequence (P14679 19-529): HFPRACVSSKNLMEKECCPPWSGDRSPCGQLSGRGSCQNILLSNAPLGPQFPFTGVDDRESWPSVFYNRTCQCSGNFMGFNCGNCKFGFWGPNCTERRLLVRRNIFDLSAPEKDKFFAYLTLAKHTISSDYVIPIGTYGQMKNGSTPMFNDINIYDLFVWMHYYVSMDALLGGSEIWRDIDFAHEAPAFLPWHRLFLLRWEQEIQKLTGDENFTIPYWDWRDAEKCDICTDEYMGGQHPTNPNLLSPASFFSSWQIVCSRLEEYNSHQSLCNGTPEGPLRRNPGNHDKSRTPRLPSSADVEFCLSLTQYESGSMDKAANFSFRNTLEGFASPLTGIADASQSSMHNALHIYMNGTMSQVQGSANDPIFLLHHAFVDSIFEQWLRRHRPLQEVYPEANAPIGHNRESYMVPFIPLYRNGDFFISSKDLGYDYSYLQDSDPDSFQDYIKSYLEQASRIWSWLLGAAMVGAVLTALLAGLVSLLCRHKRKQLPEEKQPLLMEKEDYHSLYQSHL
Description: The products are tested in solution at 30 μg/mL in DMSO. Epidermis samples originating from a frozen abdominoplasty (person) were separated by incubation in 2N NaBr for 1.0 h at 37° C. They were then fixed in a buffered formolized fixing agent, rinsed and put in contact with the volume/volume mixture: solutions of L-DOPA/test formulation. After incubation, they were rinsed and mounted between slide and cover slip with mounting liquid of the Aquatex type. Observation was by optical microscopy with ×10 objective. Images were obtained with a tri CCD Sony DXC […] camera and stored using the Leica IM1000 data archiving software. For each batch, several microscope fields were analysed using the LEICA QWin image analysis software. For each field, the DOPA positive melanocytes were counted and the area of the zone was measured to determine the melanocyte count per mm^2.

B16 melanocytes [2] = assay: Viability of the cells, test of reduction of MTT; details: 72 h
Description: (§1) Melanocytes were seeded on a 96-well plate and cultured for 24 h (37° C., 5% CO2, DMEM 1 g/L glucose without phenol red supplemented with glucose 3 g/L, L-glutamine 2 mM, penicillin 50 U/mL, streptomycin 50 μg/mL, fetal calf serum (FCS) 10%). […] Each experimental condition was carried out with n=3, apart from the controls carried out with n=6. The cells were then incubated for 72 h. Wells without cells received in parallel the same quantities of medium, supplemented or not with NDP-MSH and with or without the test compounds or the reference in order to quantify the background noise associated with the presence of the compounds.
At the end of the treatment, the cells were incubated in the presence of MTT (3-(4,5-dimethylthiazol-2-yl)-2,5-diphenyl tetrazolium bromide), the conversion of which to blue crystals of formazan is proportional to the activity of succinate dehydrogenase (mitochondrial enzyme). After disruption of the cells, the formazan was dissolved in DMSO medium and the optical density (OD), representative of the number of live cells and of their metabolic reactivity, was measured with a microplate reader at 540 nm (VERSAmax, Molecular Devices).

B16 melanocytes [3] = assay: Screening of anti-melanogenesis activity: melanin assay in B16 melanocytes stimulated with NDP-MSH; details: 72 h; for inhibition at 30 µM / inhibition at 100 µM: Melanocyte, read-out: Normalized data inhibition (%)
Description: This was carried out for compounds in solution in DMSO. The synthesis of melanin was measured in a model of B16 melanocytes stimulated with a stable derivative of α-MSH (natural hormone that stimulates melanogenesis: Melanocyte Stimulating Hormone): NDP-MSH ([Nle^4, DPhe7]-α-MSH).
as §1
At the end of 72 hours of incubation, the total melanin (intra- and extracellular) was quantified by measuring the absorbance of each sample at 405 nm (direct reading of the culture plates) against a standard range of melanin (melanin concentrations tested from 0.78 to 100 μg/mL). The background noise, measured in the wells without cells, was subtracted from the values measured so that only the effect connected with the production of melanin is taken into account, without including any interference connected with the presence of the compounds. The results were expressed in percentage of melanin relative to the control as well as in percentage inhibition.

[4] = tested on: Human dermal fibroblasts aged according to the Hayflick model (P17NHDF); assay: Proliferation of aged human dermal fibroblasts, [3H]-thymidine incorporation; details: 72 hours
Description: Thus, stimulation of the proliferation of the aged fibroblasts makes possible a partial reversal of the deleterious effects of ageing. • Biological model: Human dermal fibroblasts aged according to the Hayflick model (fibroblasts obtained by successive subculture) (P17NHDF) • Culture conditions: 37° C., 5% CO2 • Culture medium: DMEM/fetal calf serum (FCS) 10% • Conditions: • Control (n=6) • Control normal fibroblasts, not aged (P7 NHDF) (n=2) • Reference: EGF (Epidermal Growth Factor) at 10 ng/mL (n=2) • compounds tested (n=2) • Incubation: 72 hours • Assay: The effects on proliferation were evaluated by measuring the incorporation of [^3H]-thymidine in fibroblasts aged according to the Hayflick model. The Hayflick model consists of applying successive subcultures in order to induce an “aged” phenotype. The results are expressed in percentage stimulation of the incorporation of [^3H]-thymidine.

[5] = tested on: Normal human epidermal keratinocytes (NHEK); assay: Proliferation and/or migration of keratinocytes, artificial wound coverage; details: percentage coverage at 48 h
Description: The phases of migration and proliferation of cells are major phases of healing that occur after the inflammation phase and are necessary for recolonization of the wound. An increase in the migration and proliferation of cells allows an improvement in healing. • Biological model: Normal human epidermal keratinocytes (NHEK) • Culture conditions: 37° C., 5% CO2 • Culture medium: Keratinocyte-SFM-PE-EGF (keratinocyte culture medium—serum free medium (SFM) without pituitary extract (PE) and without Epidermal Growth Factor (EGF) • Conditions: • Control (n=6) • Reference: EGF (Epidermal Growth Factor) at 10 ng/ml (n=2) • compounds tested (n=2) • Incubation: 72 hours • Assay: Normal human keratinocytes were seeded on 96-well plates suitable for the migration studies. In these plates, the substrates were pretreated with a solution of collagen and a mask was placed at the centre of each well, preventing adhesion of the cells in this zone and thus forming an artificial wound. After labelling the cells with calcein, the masks were removed and then the cells were treated with the compounds or the reference. The migration of the cells was monitored microscopically for 72 hours, taking photographs at 0 h, 24 h, 48 h and 72 h. The results are expressed in percentage coverage and compared with the untreated control.

## O=C(NC1CCC(NC(=O)C(F)=CCCCCCCCCO)C1)C(F)=CCCCCCCCCO (mixture of isomers) [c59]
[1]
  Variation/control: −56
  effectiveness for limiting tyrosinase activity compared with reference compounds: more effective than the reference compounds
B16 melanocytes [2]; 1 μM
  Viability (MTT) % stimulated control: 108 % stimulated control
B16 melanocytes [2]; 3 μM
  Viability (MTT) % stimulated control: 90 % stimulated control
B16 melanocytes [2]; 10 μM
  Viability (MTT) % stimulated control: 88 % stimulated control
B16 melanocytes [2]; 30 μM
  Viability (MTT) % stimulated control: 82 % stimulated control
B16 melanocytes [2]; 100 μM
  Viability (MTT) % stimulated control: 2 % stimulated control
B16 melanocytes [3]; 1 μM
  Normalized data inhibition (%): 0%
B16 melanocytes [3]; 3 μM
  Normalized data inhibition (%): 9%
B16 melanocytes [3]; 10 μM
  Normalized data inhibition (%): 38%
B16 melanocytes [3]; 30 μM
  Normalized data inhibition (%): 71%
B16 melanocytes [3]; 100 μM
  Normalized data inhibition (%): 118%

## O=C(/C=C/CCCCCCCCCCCCCCO)N[C@H]1C[C@@H]1NC(=O)/C=C/CCCCCCCCCCCCCCO (relative stereo) [c93]
[1]
  Variation/control: −48

## O=C(O)/C=C/CCCCCCCCCCCCCCCO [Ref 1, (E)-18-Hydroxy-octadec-2-enoic acid, reference compound]
[1]
  Variation/control: −16
B16 melanocytes [2]; mouse, 30 μM
  Viability (MTT) % stimulated control: 79 % stimulated control
B16 melanocytes [2]; mouse, 100 μM
  Viability (MTT) % stimulated control: 63 % stimulated control
B16 melanocytes [3]; 30 μM
  inhibition at 30 µM: 0%
B16 melanocytes [3]; 100 μM
  inhibition at 100 µM: 115%

## O=C(O)/C=C/CCCCCCCCCCCO [Ref 3, (E)-14-Hydroxy-tetradec-2-enoic acid, reference compound]
[1]
  Variation/control: −15

## O=C(O)C(F)=CCCCCCCCCCCCO [Ref 4, 2-Fluoro-14-hydroxy-tetradec-2-enoic acid, reference compound]
[1]
  Variation/control: −36
B16 melanocytes [2]; 30 μM
  Viability (MTT) % stimulated control: 114 % stimulated control
B16 melanocytes [2]; 100 μM
  Viability (MTT) % stimulated control: 95 % stimulated control
B16 melanocytes [3]; 30 μM
  inhibition at 30 µM: 0%
B16 melanocytes [3]; 100 μM
  inhibition at 100 µM: 0%

## O=C(O)/C=C/CCCCCCCCCCCCO [Ref 5, (E)-15-Hydroxy-pentadec-2-enoic acid, reference compound]
[1]
  Variation/control: −29

## O=C(O)/C=C/CCCCCCCCCO [Ref 6, (E)-12-Hydroxy-dodec-2-enoic acid, reference compound]
[1]
  Variation/control: −24

## O=C(/C=C/CCCCCCCCCCCO)N[C@H]1C[C@H]1NC(=O)/C=C/CCCCCCCCCCCO [c7]
[4]; 10 μM
  Stimulation (%): 63%

## O=C(/C=C/CCCCCCCCCCCO)N[C@H]1CCC[C@H]1NC(=O)/C=C/CCCCCCCCCCCO [c17]
[5]; 1 μM
  % control 48 h: 141 % control

## O=C(N[C@H]1C[C@H]1NC(=O)C(F)=CCCCCCCCO)C(F)=CCCCCCCCO [c36]
[5]; 3 μM
  % control 48 h: 154 % control

## O=C(N[C@H]1C[C@H]1NC(=O)/C(F)=C/CCCCCCCCCCCO)/C(F)=C/CCCCCCCCCCCO [c40]
[1]
  Variation/control: −61
  effectiveness for limiting tyrosinase activity compared with reference compounds: more effective than the reference compounds
B16 melanocytes [2]; 10 μM
  Viability (MTT) % stimulated control: 89 % stimulated control
B16 melanocytes [2]; 30 μM
  Viability (MTT) % stimulated control: 85 % stimulated control and 94 % stimulated control
B16 melanocytes [2]; 100 μM
  Viability (MTT) % stimulated control: 86 % stimulated control and 94 % stimulated control
B16 melanocytes [3]; 10 μM
  Normalized data inhibition (%): −1%
[5]; 30 μM
  % control 48 h: 144 % control

## O=C(N[C@H]1CCC[C@H]1NC(=O)/C(F)=C/CCCCCCCO)/C(F)=C/CCCCCCCO [c45]
[5]; 3 μM
  % control 48 h: 145 % control

## O=C(NC1CCCC1NC(=O)C(F)=CCCCCCCCCCCCCCCO)C(F)=CCCCCCCCCCCCCCCO (stereo not shown) [c53]
[5]; 3 μM
  % control 48 h: 137 % control

## CCCCCCCCCCC/C=C/C(=O)N[C@H]1CCC[C@H]1NC(=O)/C=C/CCCCCCCCCCC [c79]
[1]
  Variation/control: −45
[5]; 1 μM
  % control 48 h: 141 % control

## CCCCCCCCCCC/C=C(/F)C(=O)N[C@@H]1CC[C@H](NC(=O)/C(F)=C\CCCCCCCCCCC)C1 [c85]
[5]; 10 μM
  % control 48 h: 176 % control
[4]; 10 μM
  Stimulation (%): 22%

## CCCCCCCCC=CCCCCCCCC(=O)NC1CCCC1NC(=O)CCCCCCCC=CCCCCCCCC (stereo not shown) [c127]
[1]
  Variation/control: −45

## O=C(NC1CCC(NC(=O)C(F)=CCCCCCOC2CCCCO2)C1)C(F)=CCCCCCOC1CCCCO1 (stereo not shown) [c149]
B16 melanocytes [2]; 30 μM
  Viability (MTT) % stimulated control: 87 % stimulated control
B16 melanocytes [2]; 100 μM
  Viability (MTT) % stimulated control: 28 % stimulated control
B16 melanocytes [3]; 30 μM
  Normalized data inhibition (%): 108%
B16 melanocytes [3]; 100 μM
  Normalized data inhibition (%): 120%

## (E)-14-tetrahydropyranyloxy-tetradec-2-enoic acid [Ref3, reference compound]
B16 melanocytes [2]; 30 μM
  Viability (MTT) % stimulated control: 92 % stimulated control
B16 melanocytes [3]; 30 μM
  Normalized data inhibition (%): 0%
B16 melanocytes [3]; 100 μM
  Normalized data inhibition (%): 11%

## EGF: Epidermal Growth Factor, reference
[5]; 10 ng/mL
  % control 48 h: 161 % control
[4]; 10 ng/ml
  Stimulation (%): 89%
